Counter-ions that a name gives are not always drawn.
biological target: T1, TNIK (Homo sapiens, UniProt Q9UKE5); assay: ADP-Glo Kinase Assay, inhibition activity on TNIK; type: biochemical; conditions: read-out: TNIK
T1 construct: purchased Promega V4158
Protocol: The inhibition activities on TNIK, IKKε and TBK1 were measured by a luminometer, TNIK/IKKε/TBK1 Kinase Enzyme System (Promega, Ca# V4158; Invitrogen, PR8031B, Promega, Ca# V3991) and ADP-Glo Kinase Assay using ADP-Glo™ Kinase Analysis Kit (Promega, Ca# V9101) and a kinase reaction buffer [40 mM Tris(pH 7.5), 20 mM MgCl2, 0.1 mg/mL BSA] in accordance with the manufacturer's protocol.

T1 sequence (Q9UKE5 1-367 limits assumed): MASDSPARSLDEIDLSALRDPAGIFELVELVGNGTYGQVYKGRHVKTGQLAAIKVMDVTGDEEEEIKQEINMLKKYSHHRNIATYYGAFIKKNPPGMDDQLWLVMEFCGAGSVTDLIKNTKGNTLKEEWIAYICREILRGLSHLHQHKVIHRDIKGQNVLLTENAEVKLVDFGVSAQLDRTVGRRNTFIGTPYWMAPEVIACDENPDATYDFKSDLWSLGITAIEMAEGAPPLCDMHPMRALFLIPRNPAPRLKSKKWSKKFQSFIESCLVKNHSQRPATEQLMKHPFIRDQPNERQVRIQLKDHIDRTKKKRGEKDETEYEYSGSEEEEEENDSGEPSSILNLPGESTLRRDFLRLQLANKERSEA

| SMILES | IC50 [nM] |
| --- | --- |
| O=C(Nc1ccc(Nc2ccccc2)c2c1C(=O)NC2)c1ccc(NCCCN2CCCC2=O)cc1 [Example 459, N-(3-oxo-7-(phenylamino)isoindolin-4-yl)-4-((3-(2-oxopyrrolidin-1-yl)propyl)amino)benzamide] | 210 |
| CN(C)CCCNc1ccc(C(=O)Nc2ccc(Nc3ccccc3)c3c2C(=O)NC3)cc1 [Example 460, 4-((3-(Dimethylamino)propyl)amino)-N-(3-oxo-7-(phenylamino)isoindolin-4-yl)benzamide] | 140 |
| O=C(Nc1ccc(Nc2ccccc2)c2c1C(=O)NC2)c1ccc(NCCCN2CCOCC2)cc1 [Example 461, 4-((3-Morpholinopropyl)amino)-N-(3-oxo-7-(phenylamino)isoindolin-4-yl)benzamide] | 380 |
| O=C(Nc1ccc(Nc2ccccc2)c2c1C(=O)NC2)c1ccc(NCCCN2CCCC2)cc1 [Example 462, N-(3-oxo-7-(phenylamino)isoindolin-4-yl)-4-((3-(pyrrolidin-1-yl)propyl)amino)benzamide] | 290 |
| CN1CCN(CCCNc2ccc(C(=O)Nc3ccc(Nc4ccccc4)c4c3C(=O)NC4)cc2)CC1 [Example 463, 4-((3-(4-Methylpiperazin-1-yl)propyl)amino)-N-(3-oxo-7-(phenylamino)isoindolin-4-yl)benzamide] | 370 |
| O=C(Nc1ccc(Nc2ccccc2)c2c1C(=O)NC2)c1ccc(NCCCO)cc1 [Example 464, 4-((3-Hydroxypropyl)amino)-N-(3-oxo-7-(phenylamino)isoindolin-4-yl)benzamide] | 74 |
| O=C(Nc1ccc(Nc2cc(C(F)(F)F)cc(C(F)(F)F)c2)c2c1C(=O)NC2)c1ccc(NCCN2CCCC2)cc1 [Example 465, N-(7-((3,5-bis(trifluoromethyl)phenyl)amino)-3-oxoisoindolin-4-yl)-4-((2-(pyrrolidin-1-yl)ethyl)amino)benzamide] | > 20000 |
| O=C(Nc1ccc(Nc2cc(C(F)(F)F)cc(C(F)(F)F)c2)c2c1C(=O)NC2)c1ccc(NCCCN2CCCC2)cc1 [Example 466, N-(7-((3,5-bis(trifluoromethyl)phenyl)amino)-3-oxoisoindolin-4-yl)-4-((3-(pyrrolidin-1-yl)propyl)amino)benzamide] | 14000 |
| O=C(Nc1ccc(Nc2cc(C(F)(F)F)cc(C(F)(F)F)c2)c2c1C(=O)NC2)c1ccc(NCCN2CCCCC2)cc1 [Example 467, N-(7-((3,5-bis(trifluoromethyl)phenyl)amino)-3-oxoisoindolin-4-yl)-4-((2-(piperidin-1-yl)ethyl)amino)benzamide] | > 20000 |
| O=C(Nc1ccc(Nc2cc(C(F)(F)F)cc(C(F)(F)F)c2)c2c1C(=O)NC2)c1ccc(NCCCN2CCCCC2)cc1 [Example 468, N-(7-((3,5-bis(trifluoromethyl)phenyl)amino)-3-oxoisoindolin-4-yl)-4-((3-(piperidin-1-yl)propyl)amino)benzamide] | 17100 |
| Cc1cccc(Nc2ccc(NC(=O)c3ccc(NCCN4CCCC4)cc3)c3c2CNC3=O)c1C [Example 469, N-(7-((2,3-dimethylphenyl)amino)-3-oxoisoindolin-4-yl)-4-((2-(pyrrolidin-1-yl)ethyl)amino)benzamide] | 370 |
| Cc1cccc(Nc2ccc(NC(=O)c3ccc(NCCCN4CCCC4)cc3)c3c2CNC3=O)c1C [Example 470, N-(7-((2,3-dimethylphenyl)amino)-3-oxoisoindolin-4-yl)-4-((3-(pyrrolidin-1-yl)propyl)amino)benzamide] | 470 |
| Cc1cccc(Nc2ccc(NC(=O)c3ccc(NCCN4CCCCC4)cc3)c3c2CNC3=O)c1C [Example 471, N-(7-((2,3-dimethylphenyl)amino)-3-oxoisoindolin-4-yl)-4-((2-(piperidin-1-yl)ethyl)amino)benzamide] | 610 |
| Cc1cccc(Nc2ccc(NC(=O)c3ccc(NCCCN4CCCCC4)cc3)c3c2CNC3=O)c1C [Example 472, N-(7-((2,3-dimethylphenyl)amino)-3-oxoisoindolin-4-yl)-4-((3-(piperidin-1-yl)propyl)amino)benzamide] | 410 |
| Cc1ccccc1Nc1ccc(NC(=O)c2ccc(NCCN3CCCC3)cc2)c2c1CNC2=O [Example 473, N-(3-oxo-7-(o-tolylamino)isoindolin-4-yl)-4-((2-(pyrrolidin-1-yl)ethyl)amino)benzamide] | 430 |
| COc1ccccc1Nc1ccc(NC(=O)c2ccc(NCCN3CCCC3)cc2)c2c1CNC2=O [Example 474, N-(7-((2-methoxyphenyl)amino)-3-oxoisoindolin-4-yl)-4-((2-(pyrrolidin-1-yl)ethyl)amino)benzamide] | 440 |
| COc1ccccc1Nc1ccc(NC(=O)c2ccc(NCCCN3CCCC3)cc2)c2c1CNC2=O [Example 475, N-(7-((2-methoxyphenyl)amino)-3-oxoisoindolin-4-yl)-4-((3-(pyrrolidin-1-yl)propyl)amino)benzamide] | 470 |

| SMILES | IC50 [nM] |
| --- | --- |
| Cc1ccccc1Nc1ccc(NC(=O)c2ccc(NCCCN3CCCC3)cc2)c2c1CNC2=O [Example 476, N-(3-oxo-7-(o-tolylamino)isoindolin-4-yl)-4-((3-(pyrrolidin-1-yl)propyl)amino)benzamide] | 500 |
| COc1ccccc1Nc1ccc(NC(=O)c2ccc(NCCN3CCCCC3)cc2)c2c1CNC2=O [Example 477, N-(7-((2-methoxyphenyl)amino)-3-oxoisoindolin-4-yl)-4-((2-(piperidin-1-yl)ethyl)amino)benzamide] | 420 |
| COc1ccccc1Nc1ccc(NC(=O)c2ccc(NCCCN3CCCCC3)cc2)c2c1CNC2=O [Example 478, N-(7-((2-methoxyphenyl)amino)-3-oxoisoindolin-4-yl)-4-((3-(piperidin-1-yl)propyl)amino)benzamide] | 490 |
| O=C(Nc1ccc(Nc2ccccc2)c2c1C(=O)NC2)c1ccc(NCCCN2CCCCC2)cc1 [Example 479, N-(3-oxo-7-(phenylamino)isoindolin-4-yl)-4-((3-(piperidin-1-yl)propyl)amino)benzamide] | 110 |
| O=C(Nc1ccc(Nc2ccccc2)c2c1C(=O)NC2)c1ccc(NCCCN2CCCCC2)cc1 [Example 480, N-(3-oxo-7-(phenylamino)isoindolin-4-yl)-4-((3-(piperidin-1-yl)propyl)amino)benzamide hydrochloride] | 220 |
| NCCNc1ccc(C(=O)Nc2ccc(Nc3ccccc3)c3c2C(=O)NC3)cc1 [Example 481, 4-((2-Aminoethyl)amino)-N-(3-oxo-7-(phenylamino)isoindolin-4-yl)benzamide] | 200 |
| Cc1ccccc1Nc1ccc(NC(=O)c2ccc(NCCN3CCCCC3)cc2)c2c1CNC2=O [Example 482, N-(3-oxo-7-(o-tolylamino)isoindolin-4-yl)-4-((2-(piperidin-1-yl)ethyl)amino)benzamide] | 420 |
| Cc1ccccc1Nc1ccc(NC(=O)c2ccc(NCCCN3CCCCC3)cc2)c2c1CNC2=O [Example 483, N-(3-oxo-7-(o-tolylamino)isoindolin-4-yl)-4-((3-(piperidin-1-yl)propyl)amino)benzamide] | 250 |
| O=C(Nc1ccc(Nc2ccccc2)c2c1C(=O)NC2)c1ccc(NCCCCO)cc1 [Example 484, 4-((4-Hydroxybutyl)amino)-N-(3-oxo-7-(phenylamino)isoindolin-4-yl)benzamide] | 290 |
| CC(=O)NCCNc1ccc(C(=O)Nc2ccc(Nc3ccccc3)c3c2C(=O)NC3)cc1 [Example 485, 4-((2-Acetamidoethyl)amino)-N-(3-oxo-7-(phenylamino)isoindolin-4-yl)benzamide] | 100 |
| NCCCNc1ccc(C(=O)Nc2ccc(Nc3ccccc3)c3c2C(=O)NC3)cc1 [Example 486, 4-((3-Aminopropyl)amino)-N-(3-oxo-7-(phenylamino)isoindolin-4-yl)benzamide] | 200 |
| O=C(Nc1ccc(Nc2ccccc2)c2c1C(=O)NC2)c1ccc(NCCO)cc1 [Example 487, 4-((2-Hydroxyethyl)amino)-N-(3-oxo-7-(phenylamino)isoindolin-4-yl)benzamide] | 97 |
| O=C(Nc1ccc(Nc2ccccc2)c2c1C(=O)NC2)c1ccc(NCC(O)CN2CCCCC2)cc1 (stereo not shown) [Example 488, 4-((2-Hydroxy-3-(piperidin-1-yl)propyl)amino)-N-(3-oxo-7-(phenylamino)isoindolin-4-yl)benzamide] | 93 |
| O=C(Nc1ccc(Nc2ccccc2)c2c1C(=O)NC2)c1ccc(NC[C@H](O)CN2CCCCC2)cc1 [Example 489, (S)-4-((2-hydroxy-3-(piperidin-1-yl)propyl)amino)-N-(3-oxo-7-(phenylamino)isoindolin-4-yl)benzamide] | 87 |
| O=C(Nc1ccc(Nc2ccccc2)c2c1C(=O)NC2)c1ccc(NC[C@@H](O)CN2CCCCC2)cc1 [Example 490, (R)-4-((2-hydroxy-3-(piperidin-1-yl)propyl)amino)-N-(3-oxo-7-(phenylamino)isoindolin-4-yl)benzamide] | 140 |
| NC1CCN(c2ccc(C(=O)Nc3ccc(Nc4ccccc4)c4c3C(=O)NC4)cc2)CC1 [Example 491, 4-(4-Aminopiperidin-1-yl)-N-(3-oxo-7-(phenylamino)isoindolin-4-yl)benzamide] | 110 |
| O=C(Nc1ccc(Nc2ccccc2)c2c1C(=O)NC2)c1ccc(NCCN2CCCCCC2)cc1 [Example 492, 4-((2-(Azepan-1-yl)ethyl)amino)-N-(3-oxo-7-(phenylamino)isoindolin-4-yl)benzamide] | 180 |
